Data reported in patent US20230257377A1, “2-AMINOQUINAZOLINONE DERIVATIVES AS METHIONINE ADENOSYLTRANSFERASE 2A INHIBITORS” (IDEAYA BIOSCIENCES, INC., priority 2020, published 2023).

Biological target: T1, Human MAT2A (Homo sapiens, UniProt P31153)
T1 construct: Human MAT2A: Cepter, amino acids 1-395 Clone ID 334, lot 00023-148; purchased Cepter clone ID 334, lot 00023-148
Assay: Phosphate Sensor Fluorescence Assay (Biologic Example B)
Type: biochemical
Settings: MAT2A inhibition, procedure of Biological Example B; 5.8 nM MAT2A, 500 uM L-methionine, 500 uM ATP, 0.01% BGG
Procedure: (§1) The ability of the compound of present disclosure to inhibit MAT2A enzyme was determined using a Phosphate Sensor Fluorescence Assay described below.
(§2) MAT2A enzyme is incubated with a test compound in DMSO or DMSO and its substrates (L-methionine and ATP) in a microtiter plate. The enzymatic reaction is stopped by the addition of Working Phosphate Sensor Mixture. The plate is analyzed for fluorescence at 450 nm. The high control (DMSO with enzyme and its substrates) gives high fluorescence which represents no inhibition of enzymatic activity while the low control (DMSO with MAT2A substrates and no enzyme) gives low fluorescence which represents full inhibition of enzymatic activity.
MAT2A: 5.8 nM MAT2A (1-395), Cepter, clone ID 334, lot 00023-148 before the addition of Working Phosphate Sensor Mixture
(§3) L-methionine: 500 uM before the addition of Working Phosphate Sensor Mixture
(§4) ATP: 500 uM before the addition of Working Phosphate Sensor Mixture
(§5) For the assay, a mixture of 1 mM L-methionine/1 mM ATP (2X final pre-stopped concentration) in assay buffer; MAT2A (2X final pre-stopped concentration) in Assay Buffer and Working Phosphate Sensor Mixture (1.5 uM Phosphate Sensor/30 mM EDTA in Assay Buffer, which is 3X final concentrations) were prepared. Test compounds or DMSO were added to the appropriate well using a Beckman Coulter Echo 550 acoustic liquid handler. 10 μL/well of Assay Buffer was added to the wells corresponding to the negative control and 10 μL/well of MAT2A was added to all the wells except for those corresponding to the negative control. After incubating the plate at room temperature for 15 minutes, 10 μL/well of the 1 mM L-methionine/1 mM ATP mixture was added to all wells. The plate was centrifuged at 1000 rpm for 1 minute and then incubated at room temperature for 1 hour. 10 μL of the Working Phosphate Sensor Mixture was added to all wells and the plate was centrifuged at 1000 rpm for 1 minute. The plate was read for fluorescence at 450 nm after exciting at 430 nm on a Tecan Spark microplate reader.
(§6) Percent inhibition was calculated in Chemical and Biological Information System (CBIS), (ChemInnovation Software Inc.). Curves were fitted by CBIS as % inhibition vs. log [compound concentration] using a 4-parameter inhibition model.
(§7) Fit=(A+((B−A)/(1+((C/x)^D))))

T1 sequence (P31153 whole entry, the tested form may be a part): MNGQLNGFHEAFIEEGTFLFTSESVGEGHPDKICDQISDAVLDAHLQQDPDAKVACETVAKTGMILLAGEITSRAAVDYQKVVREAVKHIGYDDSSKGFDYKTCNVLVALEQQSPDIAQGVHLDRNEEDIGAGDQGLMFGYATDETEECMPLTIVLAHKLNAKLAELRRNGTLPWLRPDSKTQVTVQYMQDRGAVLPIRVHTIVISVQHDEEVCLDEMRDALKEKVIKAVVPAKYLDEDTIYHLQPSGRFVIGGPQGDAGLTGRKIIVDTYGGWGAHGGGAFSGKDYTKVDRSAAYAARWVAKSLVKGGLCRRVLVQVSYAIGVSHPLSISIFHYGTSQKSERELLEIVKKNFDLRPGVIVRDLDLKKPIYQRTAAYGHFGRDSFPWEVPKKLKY

IC50	SMILES
1 to 10 µM	CC(=O)Nc1nc(=O)c(-c2ccccc2)c2cc(C(F)(F)F)ccn12 [Compound 1.009, N-(3-oxo-4-phenyl-6-(trifluoromethyl)-3H-pyrido[1,2-c]pyrimidin-1-yl)acetamide]
0.01 to 0.2 µM	CCCNc1nc(=O)c(-c2ccccc2)c2cc(C(F)(F)F)ccn12 [Compound 1.010, 4-Phenyl-1-(propylamino)-6-(trifluoromethyl)-3H-pyrido[1,2-c]pyrimidin-3-one]
0.01 to 0.2 µM	CNc1nc(=O)c(-c2ccccc2)c2cc(C(F)(F)F)ccn12 [Compound 1.011, 1-(Methylamino)-4-phenyl-6-(trifluoromethyl)-3H-pyrido[1,2-c]pyrimidin-3-one]

Further lines, the molecule ahead of its results:

SMILES	IC50
Nc1nc(=O)c(-c2cccnc2)c2cc(C(F)(F)F)ccn12 [Compound 1.005, 1-Amino-4-(pyridin-3-yl)-6-(trifluoromethyl)-3H-pyrido[1,2-c]pyrimidin-3-one]	0.01 to 0.2 µM
Cn1nccc1-c1c(=O)nc(N)n2ccc(C(F)(F)F)cc12 [Compound 1.006, 1-Amino-4-(1-methyl-TH-pyrazol-5-yl)-6-(trifluoromethyl)-3H-pyrido[1,2-c]pyrimidin-3-one]	0.01 to 0.2 µM
Nc1nc(=O)c(-c2ccccc2)c2cc(Br)ccn12 [Compound 1.007, 1-Amino-6-bromo-4-phenyl-3H-pyrido[1,2-c]pyrimidin-3-one]	0.01 to 0.2 µM
Cc1ccccc1-c1c(=O)nc(N)n2ccc(Br)cc12 [Compound 1.008, 1-Amino-6-bromo-4-(o-tolyl)-3H-pyrido[1,2-c]pyrimidin-3-one]	0.01 to 0.2 µM

Biological target: T1, Human MAT2A
Assay: Phosphate Sensor Fluorescence Assay (Biologic Example A)
Type: biochemical
Settings: MAT2A inhibition, procedure of Biological Example A; 500 uM L-methionine, 500 uM ATP, 0.1% BGG
Procedure: as §1, §2
Human MAT2A: Cepter, amino acids 1-395
Assay Buffer: 50 mM Tris, pH 7.5/50 mM KCl/10 mM MgCl2/0.01% Brij-35/1 mM DTT/0.1% BGG/40 nM PNP/6 uM 7-MEG
MAT2A: 10 nM for Cepter clone ID 329, lot 00023-123 before the addition of Working Phosphate Sensor Mixture • 5 nM for Cepter clone ID 334, lot 00023-148 before the addition of Working Phosphate Sensor Mixture
as §3, §4
as §5, with “(2×” for “(2X”, “3×” for “3X”, “suing D300e digital dispenser. 5 μl/well” for “using a Beckman Coulter Echo 550 acoustic liquid handler. 10 μL/well”, “5 μl/well” for “10 μL/well”, “5 μl” for “10 μL”, “nm.” for “nm on a Tecan Spark microplate reader.”
as §6, §7

IC50	SMILES
0.01 to 0.2 µM	Nc1nc(=O)c(-c2ccccc2)c2cc(C(F)(F)F)ccn12 [Compound 1.001, 1-amino-4-phenyl-6-(trifluoromethyl)-3H-pyrido[1,2-c]pyrimidin-3-one]
0.01 to 0.2 µM	Cc1ccccc1-c1c(=O)nc(N)n2ccc(C(F)(F)F)cc12 [Compound 1.002, 1-amino-4-(o-tolyl)-6-(trifluoromethyl)-3H-pyrido[1,2-c]pyrimidin-3-one]
0.01 to 0.2 µM	Nc1nc(=O)c(-c2ccccc2Cl)c2cc(C(F)(F)F)ccn12 [Compound 1.003, 1-amino-4-(2-chlorophenyl)-6-(trifluoromethyl)-3H-pyrido[1,2-c]pyrimidin-3-one]
0.2 to 0.5 µM	COc1cc(C(F)(F)F)cc2c(-c3ccccc3C)c(=O)nc(N)n12 [Compound 1.004, 1-amino-8-methoxy-4-(o-tolyl)-6-(trifluoromethyl)-3H-pyrido[1,2-c]pyrimidin-3-one]
